Source: publication PMC8901636, “Preclinical studies of Flonoltinib Maleate, a novel JAK2/FLT3 inhibitor, in treatment of JAK2^V617F-induced myeloproliferative neoplasms” (Blood Cancer Journal, 2022)

Key:
Ba/F3-JAK2^WT = experiment: MTT assay for cell proliferation; type: cell-based, Murine; conditions: Mus musculus; Ba/F3-JAK2^WT; IL-3-dependent growth; MTT 72 h; read-out: IC50(μM) ± SD, tumor cell proliferation
Method: (§1) For in vitro inhibition assays, cells were seeded in 96-well culture plates with a density of 15,000–20,000 cells/well after the cells reached 70–90% confluence. […] MTT (3-(4, 5-dimethylthiazol-2-yl)-2, 5-diphenyltetrazolium bromide) (Cat. No. 1334GR001; BioFroxx) assay was conducted in order to examine viability. The IC50 values were fitted using GraphPad Prism 7.0.

Ba/F3-EPOR = experiment: MTT assay for cell proliferation; type: cell-based, Murine; conditions: Mus musculus; Ba/F3-EPOR; IL-3-dependent growth; MTT 72 h; read-out: IC50(μM) ± SD, tumor cell proliferation
Method: as §1

HEL = experiment: MTT assay for cell proliferation; type: cell-based; conditions: Homo sapiens, JAK2V617F, MTT 72 h, read-out: IC50(μM) ± SD, tumor cell proliferation
Method: as §1

Ba/F3-JAK2^V617F = experiment: MTT assay for cell proliferation; type: cell-based, Murine; conditions: Mus musculus; Ba/F3-JAK2^V617F; MTT 72 h; read-out: IC50(μM) ± SD, tumor cell proliferation
Method: as §1

Ba/F3-EPOR-JAK2^V617F = experiment: MTT assay for cell proliferation; type: cell-based, Murine; conditions: Mus musculus; Ba/F3-EPOR-JAK2^V617F; MTT 72 h; read-out: IC50(μM) ± SD, tumor cell proliferation
Method: as §1

MV-4-11 = experiment: MTT assay for cell proliferation; type: cell-based; conditions: Homo sapiens, MV4-11; MV-4-11; FLT3-ITD expression; MTT 72 h; read-out: IC50(μM) ± SD, tumor cell proliferation
Method: as §1

Molm-13 = experiment: MTT assay for cell proliferation; type: cell-based; conditions: Homo sapiens; Molm-13; FLT3-ITD expression; MTT 72 h; read-out: IC50(μM) ± SD, tumor cell proliferation
Method: as §1

Ba/F3-FLT3-ITD = experiment: MTT assay for cell proliferation; type: cell-based, Murine; conditions: Mus musculus; Ba/F3-FLT3-ITD; MTT 72 h; read-out: IC50(μM) ± SD, tumor cell proliferation
Method: as §1

Ba/F3-FLT3-ITD^F691 = experiment: MTT assay for cell proliferation; type: cell-based, Murine; conditions: Mus musculus; Ba/F3-FLT3-ITD^F691; MTT 72 h; read-out: IC50(μM) ± SD, tumor cell proliferation
Method: as §1

Ba/F3-FLT3-ITD^D835V = experiment: MTT assay for cell proliferation; type: cell-based, Murine; conditions: Mus musculus; Ba/F3-FLT3-ITD^D835V; MTT 72 h; read-out: IC50(μM) ± SD, tumor cell proliferation
Method: as §1

JAK2^V617F = JAK2^V617F bone marrow transplantation (BMT) myelofibrosis model; type: in vivo, BALB/c mice; conditions: 30 mg/kg bid p.o.
Bioavailability [1] = conditions: rat, in vivo; rats; data not shown
Bioavailability [2] = conditions: dog, in vivo; dogs; data not shown
Ba/F3-JAK2^V617F cells = experiment: Ba/F3-JAK2^V617F disease model
[3] = tested on: Ba/F3-EPOR-JAK2^V617F cells; experiment: Ba/F3-EPOR-JAK2^V617F malignancy mouse model; conditions: 30 mg/kg bid p.o.

Cc1cnc(Nc2ccc(OCCN3CCCC3)cc2)nc1Nc1cccc(S(=O)(=O)NC(C)(C)C)c1 [Fedratinib, reference compound]
IC50 (Ba/F3-JAK2^WT): 0.68 ± 0.12 µM
IC50 (Ba/F3-EPOR): 0.97 ± 0.23 µM
IC50 (HEL): 0.77 ± 0.36 µM
IC50 (Ba/F3-JAK2^V617F): 0.61 ± 0.13 µM
IC50 (Ba/F3-EPOR-JAK2^V617F): 1.71 ± 0.04 µM
IC50 (MV-4-11): 0.26 ± 0.11 µM
IC50 (Molm-13): 0.17 ± 0.01 µM
IC50 (Ba/F3-FLT3-ITD): 0.21 ± 0.05 µM
IC50 (Ba/F3-FLT3-ITD^F691): 0.74 ± 0.15 µM
IC50 (Ba/F3-FLT3-ITD^D835V): 0.37 ± 0.04 µM
inhibition of splenomegaly (JAK2^V617F; figure prints it with a minus sign over Spleen Wight (mg)): 90.56%
median survival time (JAK2^V617F; vehicle 133.5 days): > 180 days
bioavailability (Bioavailability [1]): 19%
bioavailability (Bioavailability [2]): 37%
inhibition of the spleen growth (Ba/F3-JAK2^V617F cells; 30 mg/kg bid p.o., 22 days, figure prints it with a minus sign over Spleen Weight (mg)): 67.44%
median survival (Ba/F3-JAK2^V617F cells; 30 mg/kg bid p.o., vehicle 25 days): 28 days
body weight during treatment (Ba/F3-JAK2^V617F cells; any dose): no obvious body weight decrease
spleen suppression rate ([3]; 16 days): -40.23%
median survival time ([3]; vehicle 19 days): 22 days
